Each structure is given as a SMILES string. pEC50: −log10 of the molar value. A value given as a limit tells only on which side of the number the result lay.

56 compounds from ChEMBL document CHEMBL1156829 (Proc Natl Acad Sci U S A, 2008) can be followed below.

In data set [1] the test system is Plasmodium falciparum. The data set is described as follows: NOVARTIS: Inhibition of Plasmodium falciparum W2 (drug-resistant) proliferation in erythrocyte-based infection assay. In kind it is functional, organism-based. As to conditions: Plasmodium falciparum, W2; read-out: EC50.
For data set [2], the system named is Plasmodium falciparum. Description: NOVARTIS: Inhibition of Plasmodium falciparum 3D7 (drug-susceptible) proliferation in erythrocyte-based infection assay. Type of data set: functional, organism-based. The note with it: Plasmodium falciparum, 3D7.
A short description of data set [3]: NOVARTIS: Cytotoxicity against human hepatocellular carcinoma cell line (Huh7). In kind it is toxicity, cell-based, Huh-7. As to conditions: Huh7 cells (hepatocellular carcinoma cell line).

In the case of `Cc1cc(/C=C2\SC(=Nc3ccccc3)NC2=O)c(C)n1-c1cccc([N+](=O)[O-])c1`, the figures for the pEC50 in the data set with Plasmodium falciparum [1] and in the data set with Plasmodium falciparum [2] were 6.05 and 6.17, respectively. Moreover, the CC50 (as a rule, the concentration at which the toxic effect on the cells reaches its halfway point) in data set [3] is greater than 100 µM.
In the same order, the values of `c1ccc(CCNc2ncnc3c2[nH]c2ccccc23)cc1` are 6.86, 6.78 and 15.6 µM.
With `CC(Cc1ccsc1)Nc1nc2nonc2nc1N(C)C` (stereo not drawn), the pEC50 – broadly, the negative decadic logarithm of the EC50, by convention in mol/L – in the data set with Plasmodium falciparum [1] is 6.06; in the data set with Plasmodium falciparum [2], 6.09. Further, the CC50 in data set [3] is greater than 100 µM.
With `Clc1cccc(Cl)c1C[n+]1ccc2ccccc2c1`, the pEC50 in the data set with Plasmodium falciparum [1] is 6.06; with Plasmodium falciparum [2] it was 5.72. In data set [3], this compound returned a CC50 greater than 100 µM.
On the same counts, the results for `Cc1ccc2[nH]c(C)c(Br)c(=O)c2c1` are 6.05, 5.91 and greater than 100 µM.
In the same order, the values of `Cc1cc(C)cc(Nc2cc(C)nc3ncnn23)c1` are 6.05, 5.91 and greater than 100 µM.
In the same order, the values of `CN(C)CCCNc1ncnc2c1[nH]c1ccc(Br)cc12` are 6.64, 7.32 and 26.5 µM.
Regarding `O=C(C1CC1)N1CCOc2c(cc(-c3csc4ccccc34)cc2OCCc2ccccn2)C1`, the values for the negative-log EC50 (pEC50) in the data set with Plasmodium falciparum [1] and in the data set on Plasmodium falciparum [2] were 6.23 and 6.15, respectively. Further, in data set [3], the midpoint of cytotoxicity, the CC50, lay at 68.2 µM.
In the same order, the values of `COCCOC(=O)C1=C(C)NC2=C(C(=O)CCC2)C1c1ccc(OC)c(OC)c1OC` (stereo not drawn) are 6.06, less than 5.16 and greater than 100 µM.
On the same counts, the results for `O=C(Nc1ccccc1)C(=Cc1ccncc1)NC(=O)c1ccccc1` are 6.06, less than 5.57 and greater than 100 µM.
Turning to `CCCCCCCCCCCCCC(=O)Oc1ccccc1-c1nc2cc(C)ccn2c1NC(C)(C)CC(C)(C)C`, the pEC50 was 7.05 with Plasmodium falciparum [1] and 5.82 with Plasmodium falciparum [2]. Also, in data set [3], the CC50 was greater than 10 µM.
Regarding `CCOC(=O)c1c(CN2CCN(CC#N)CC2)n(Cc2ccccc2)c2cc(Br)c(O)cc12`, the values for the negative logarithm of the EC50 (pEC50) with Plasmodium falciparum [1] and in the data set on Plasmodium falciparum [2] were 6.05 and 5.93, respectively. Besides, the CC50 in data set [3] was greater than 100 µM.
On the same counts, the results for `C#CCN1c2ccccc2Sc2cccnc21` are 6.49, 7.30 and 36.4 µM.
On the same counts, the results for `CCOC(=O)c1cc(S(=O)(=O)NCc2ccc(F)cc2)n[nH]1` are 7.06, less than 6.07 and greater than 10 µM.
On the same counts, the results for `OC(CNCc1ccco1)Cn1c2ccc(Cl)cc2c2cc(Cl)ccc21` (stereo not drawn) are 6.06, 5.30 and greater than 100 µM.
As to `CSc1nc(SC)c2c3c(sc2n1)CN(C)CC3`, the pEC50 with Plasmodium falciparum [1] was 6.06; with Plasmodium falciparum [2], 6.12. In data set [3], this compound yielded a CC50 greater than 100 µM.
`CC(=O)N(C1=C(N(C)C)C(=O)c2ccccc2C1=O)c1ccc(Cl)c(Cl)c1`: the pEC50 in the data set with Plasmodium falciparum [1] was 7.13; in the data set with Plasmodium falciparum [2], 7.09. Further, it took 8.35 µM to reach half-maximal cytotoxicity in data set [3] (CC50).
On to `Fc1ccc(-c2c[n+](Cc3ccc(Cl)cc3Cl)c3n2CCC3)cc1`, for which the values for the negative logarithm of the EC50 (pEC50) in the data set with Plasmodium falciparum [1] and with Plasmodium falciparum [2] were 6.06 and 5.84, respectively. Also, the CC50 in data set [3] is greater than 100 µM.
In the same order, the values of `CCCCCCCC[n+]1c(C)n(C)c2cc(Cl)c(Cl)cc21` are 6.45, 6.28 and 40.5 µM.
Take `COC(=O)c1c(NC(=O)c2ccc(S(=O)(=O)N3CCOCC3)cc2)sc2c1CCN(C(C)=O)C2`: the negative logarithm of the EC50 (pEC50) with Plasmodium falciparum [1] is 6.06; with Plasmodium falciparum [2], 5.06. Also, the CC50 in data set [3] was greater than 100 µM.
On the same counts, the results for `CC(C)(C)C(=O)Cn1ccc(=N)c2ccccc21` are 6.06, 5.69 and greater than 100 µM.
On the same counts, the results for `CC(C)CNC(=O)c1ccc(OC2CCN(CC3CCCCC3)CC2)c(Cl)c1` are 6.89, 6.49 and 14.8 µM.
On the same counts, the results for `COc1ccc(OC)c(-c2ccc(O)c(CN3CCCCCC3)c2)c1` are 7.06, 6.24 and greater than 10 µM.
In the case of `O=C(NCCCN1CCCCC1)c1ccc2c(c1)sc1nc(-c3ccc(F)cc3)cn12`, the pEC50 was 6.06 with Plasmodium falciparum [1] and 6.16 in the data set with Plasmodium falciparum [2]. This compound displayed a CC50 in data set [3] greater than 100 µM.
With `N#Cc1ccc2c(c1)nc1c3ccc4c5c(ccc(c(=O)n21)c53)C(=O)NC4=O`, the values for the pEC50 in the data set with Plasmodium falciparum [1] and in the data set on Plasmodium falciparum [2] were 6.06 and 5.40, respectively. Further, the CC50 in data set [3] was greater than 100 µM.
In the same order, the values of `CCc1ccc(C(=O)C[n+]2cc(-c3ccc(OC)cc3)n3c2CCC3)cc1` are 6.07, 6.17 and greater than 98 µM.
Turning to `Cc1cccc2c1[nH]c1nc(SCC(C)C)nnc12`, the pEC50 in the data set on Plasmodium falciparum [1] was 6.06; in the data set on Plasmodium falciparum [2] it was 5.83. For the same compound, the CC50 in data set [3] was greater than 100 µM.
In the same order, the values of `COc1cc2c(cc1OC)C1Cc3ccc(OC)c(OC)c3CN1CC2` (stereo not drawn) are 6.06, 5.59 and greater than 100 µM.
As for `CN(C)CCNC(=S)Nc1cccc(C(F)(F)F)c1`, the pEC50 in the data set on Plasmodium falciparum [1] is 6.05; in the data set with Plasmodium falciparum [2], 5.39. In addition, the CC50 in data set [3] was greater than 100 µM.
In the same order, the values of `COc1ccc(-c2cc(C(F)(F)F)n3nc(C(=O)NC4CCCCC4)c(Cl)c3n2)cc1OC` are 7.46, less than 6.36 and greater than 4.02 µM.
On the same counts, the results for `CC(=O)Nc1ccc(N2C(=O)CSC2c2ccc(Br)cc2)cc1` (stereo not drawn) are 6.06, 5.63 and greater than 100 µM.
On the same counts, the results for `COc1ccc2ccc(OC)c(C3C(C#N)=C(N)OC4=C3C(=O)CC(C)(C)C4)c2c1` (stereo not drawn) are 6.06, 5.84 and greater than 100 µM.
For `COc1cccc(OCC(=O)NN=C(C)CC(=O)NCc2ccco2)c1`, the pEC50 with Plasmodium falciparum [1] is 6.05; in the data set on Plasmodium falciparum [2], less than 4.90. Further, in data set [3], the CC50 was greater than 100 µM.
In the same order, the values of `CCCC(=O)N1c2ccc(OC)cc2-c2c(ssc2=S)C1(C)C` are 6.06, 6.10 and greater than 100 µM.
As to `O=C1C(Nc2ccc(F)cc2)=C(N2CCCCC2)C(=O)c2ccccc21`, the pEC50 is 6.50 with Plasmodium falciparum [1] and 6.47 in the data set on Plasmodium falciparum [2]. In addition, the CC50 in data set [3] was found to be 36.8 µM.
On the same counts, the results for `COc1c(C=NNc2nc(Nc3ccc([N+](=O)[O-])cc3)nc(N3CCN(C)CC3)n2)cccc1[N+](=O)[O-]` are 6.31, 6.47 and 56.9 µM.
In the same order, the values of `C[n+]1oc(/C=C/c2ccccc2)cc1/C=C/c1ccccc1` are 7.05, 6.96 and greater than 10 µM.
In the same order, the values of `CN(CCCNc1ccnc2cc(Cl)ccc12)C(=O)c1ccc(Cl)cc1` are 7.12, 6.91 and greater than 8.53 µM.
As to `O=C1c2ccccc2C(=O)c2c1ccc1nonc21`, the pEC50 in the data set on Plasmodium falciparum [1] is 7.05; in the data set with Plasmodium falciparum [2], 6.92. The compound further registered a CC50 in data set [3] greater than 10 µM.
In the same order, the values of `Nc1ccc(C(=O)Nc2ccc(-c3nc4ccccc4o3)cc2)cc1` are 6.05, 6.03 and greater than 100 µM.
On the same counts, the results for `COc1cc(Br)c(C2CC(=O)Nc3ccc4ccccc4c32)cc1OC` (stereo not drawn) are 6.51, 6.41 and 34.4 µM.
On the same counts, the results for `Cn1nccc1C(OCC(=O)N1CCOCC1)c1ccc(F)cc1` (stereo not drawn) are 7.05, 6.87 and greater than 10 µM.
Take `CN(C)c1cc[n+](CC(=O)Nc2ccc(Cl)cc2)cc1`: the pEC50 is 6.05 in the data set on Plasmodium falciparum [1] and 6.26 in the data set on Plasmodium falciparum [2]. The same compound had a half-maximal cytotoxic concentration (CC50) in data set [3] greater than 100 µM.
On the same counts, the results for `O=C(CCl)Nc1ccc(OC(F)F)cc1` are 6.79, 6.50 and 18.1 µM.
On the same counts, the results for `O=C(Nc1ccc(-n2cccn2)cc1)C1CCN(Cc2nc3c(s2)CCCC3)CC1` are 6.05, 5.87 and greater than 100 µM.
In the same order, the values of `NNc1nc(NCc2ccccc2)nc(N2CCOCC2)n1` are 7.05, 7.14 and greater than 10 µM.
With `CCn1c(SCc2ccc(Cl)cc2Cl)nc2sc3c(c2c1=O)CCN(C)C3`, the negative logarithm of the EC50 (pEC50) in the data set on Plasmodium falciparum [1] is 6.05; with Plasmodium falciparum [2] it was 6.03. Moreover, the CC50 in data set [3] was greater than 100 µM.
In the same order, the values of `CCn1c(N=Nc2ccc(OC)cc2)nc2ccccc21` are 6.94, 7.01 and 13 µM.
In the same order, the values of `Cc1ccc(Cl)cc1N1CCN(S(=O)(=O)c2ccc3c(c2)oc(=O)n3C)CC1` are 6.05, less than 4.90 and greater than 100 µM.
Take `CSc1cccc(NC(=O)C2C3C=CC4(O3)C2C(=O)N(Cc2ccc(F)cc2)C4C(=O)NC2CCCC(C)C2C)c1` (stereo not drawn): the figures for the pEC50 in the data set with Plasmodium falciparum [1] and with Plasmodium falciparum [2] were 6.06 and 5.84, respectively. The compound also showed a CC50 in data set [3] greater than 100 µM.
For `N#Cc1ccc(NC(=O)NC2CC3CCCC(C2)N3CCc2ccccc2)cc1` (stereo not drawn), the pEC50 in the data set with Plasmodium falciparum [1] was 6.37; in the data set with Plasmodium falciparum [2], 6.44. The compound further displayed a CC50 in data set [3] of 48.6 µM.
In the same order, the values of `CCCCCCCCCC(=O)Oc1ccccc1-c1nc2cc(C)ccn2c1NC(C)(C)CC(C)(C)C` are 7.05, 6.00 and greater than 10 µM.
For the compound `CC1(C)CC(=O)C2=C(C1)Nc1ccccc1N(C(=O)Cc1ccccc1)C2c1ccc([N+](=O)[O-])s1` (stereo not drawn), the pEC50 with Plasmodium falciparum [1] was 7.05; in the data set on Plasmodium falciparum [2] it was less than 5.90. The compound further had a CC50 in data set [3] greater than 10 µM.
In the case of `Cc1cccn2c(=O)c3cc(C(=O)NCc4ccco4)c(=N)n(CCc4ccccc4)c3nc12`, the pEC50 was 6.06 with Plasmodium falciparum [1] and 6.41 in the data set on Plasmodium falciparum [2]. In data set [3], this compound returned a half-maximal cytotoxic concentration (CC50) greater than 100 µM.
Turning to `CCOC(=O)C1=CN(C)C=C(C(=O)OCC)C1c1cc(Br)c(OCC)c(OC)c1`, the pEC50 in the data set on Plasmodium falciparum [1] is 6.05; with Plasmodium falciparum [2], 6.04. In addition, the CC50 in data set [3] was greater than 100 µM.
In the same order, the values of `Cc1nc2sccn2c1-c1csc(Nc2ccccn2)n1` are 6.05, 6.42 and greater than 100 µM.
